Data taken from US12209080B2, “Polymorphic forms of kinase inhibitor compound, pharmaceutical composition containing same, preparation method therefor and use thereof” (EQUINOX SCIENCES, LLC, priority 2016, dated 2025).
In brackets after ≈: the same amount, converted by molar mass.

What was measured:
[1] = Stability of crystalline form 1 in aqueous methanol (XRPD detection); format: physicochemical
Text: The stability of the crystalline form 1 in aqueous methanol solution at different temperature and for different time is as follows.

[2] = Solubility of crystalline forms 1 and 2 in various media; format: physicochemical
Text: The moisture content, solubility and dissolution rate of the crystalline forms 1 and 2 were detected using the methods described above. The results are shown in Table 21, which indicate that the solubility, dissolution, and moisture content (total pharmaceutical properties) of the crystalline form 1 are higher than that of the crystalline form 2. Moreover, the crystalline forms 1 and 2 have the highest solubility in methanol.

XRPD detection ([1]; 2.0 g in 50 mL methanol, moisture (KF) 0.1%, 20-30° C., 2 hrs): form 1 | XRPD detection ([1]; 2.0 g in 50 mL methanol, moisture (KF) 0.1%, 20-30° C., 4 hrs): form 1 | XRPD detection ([1]; 2.0 g in 50 mL methanol, moisture (KF) 0.1%, 20-30° C., 8 hrs): form 1 | XRPD detection ([1]; 2.0 g in 50 mL methanol, moisture (KF) 0.1%, 20-30° C., 21 hrs): form 1 | XRPD detection ([1]; 2.0 g in 50 mL methanol, moisture (KF) 5.2%, 20-30° C., 2 hrs): form 1 | XRPD detection ([1]; 2.0 g in 50 mL methanol, moisture (KF) 5.2%, 20-30° C., 4 hrs): form 1 | XRPD detection ([1]; 2.0 g in 50 mL methanol, moisture (KF) 5.2%, 20-30° C., 8 hrs): form 1 | XRPD detection ([1]; 2.0 g in 50 mL methanol, moisture (KF) 5.2%, 20-30° C., 21 hrs): form 1 | XRPD detection ([1]; 2.0 g in 50 mL methanol, moisture (KF) 10%, 20-30° C., 2 hrs): form 1 | XRPD detection ([1]; 2.0 g in 50 mL methanol, moisture (KF) 10%, 20-30° C., 4 hrs): form 1 | XRPD detection ([1]; 2.0 g in 50 mL methanol, moisture (KF) 10%, 20-30° C., 8 hrs): form 1 | XRPD detection ([1]; 2.0 g in 50 mL methanol, moisture (KF) 10%, 20-30° C., 21 hrs): form 1 | XRPD detection ([1]; 5.0 g in 50 mL methanol, moisture (KF) 0.1%, reflux, 2 hrs): form 1 | XRPD detection ([1]; 5.0 g in 50 mL methanol, moisture (KF) 0.1%, reflux, 4 hrs): form 1 | XRPD detection ([1]; 5.0 g in 50 mL methanol, moisture (KF) 0.1%, reflux, 8 hrs): form 2 | XRPD detection ([1]; 5.0 g in 50 mL methanol, moisture (KF) 0.1%, reflux, 21 hrs): form 2 | XRPD detection ([1]; 5.0 g in 50 mL methanol, moisture (KF) 5.2%, reflux, 2 hrs): form 1 | XRPD detection ([1]; 5.0 g in 50 mL methanol, moisture (KF) 5.2%, reflux, 4 hrs): form 1 + form 2 | XRPD detection ([1]; 5.0 g in 50 mL methanol, moisture (KF) 5.2%, reflux, 8 hrs): form 2 | XRPD detection ([1]; 5.0 g in 50 mL methanol, moisture (KF) 5.2%, reflux, 21 hrs): form 2 | XRPD detection ([1]; 5.0 g in 50 mL methanol, moisture (KF) 10%, reflux, 2 hrs): form 1 | XRPD detection ([1]; 5.0 g in 50 mL methanol, moisture (KF) 10%, reflux, 4 hrs): form 2 | XRPD detection ([1]; 5.0 g in 50 mL methanol, moisture (KF) 10%, reflux, 8 hrs): form 2 | XRPD detection ([1]; 5.0 g in 50 mL methanol, moisture (KF) 10%, reflux, 21 hrs): form 2 | Solubility ([2]; 1% Tween 80): 60 µg/mL (≈ 137 µM) | Solubility ([2]; 1% sodium lauryl sulfate): 3480 µg/mL (≈ 7920 µM) | Solubility ([2]; 2% sodium lauryl sulfate): 3790 µg/mL (≈ 8620 µM) | Solubility ([2]; PEG 400): 3660 µg/mL (≈ 8330 µM) | Solubility ([2]; acetonitrile): 680 µg/mL (≈ 1550 µM) | Solubility ([2]; aqueous solution with pH of 1.0-7.5): 0.12 to 0.53 µg/mL | solubility at 4 h ([2]; artificial gastric juice, simulated gastric fluid, thermodynamic from solid, second line of this heading (Table 21 r21)): 0.43 µg/mL (≈ 0.978 µM) | Solubility ([2]; ethanol): 2460 µg/mL (≈ 5600 µM) | Solubility ([2]; glycerin): 570 µg/mL (≈ 1300 µM) | Solubility ([2]; methanol): 8170 µg/mL (≈ 18600 µM)
SMILES: Cc1[nH]c(/C=C2\C(=O)Nc3ccc(F)cc32)c(C)c1C(=O)N[C@H]1CCN(C(=O)N(C)C)C1 [crystalline form 1, 5-[5-fluoro-2-oxo-1,2-dihydro-indole-(3Z)-ylidenemethyl]-2,4-dimethyl-1H-pyrrole-3-carboxylic acid ((S)-1-dimethylcarbamoyl-pyrrolidin-3-yl)-amide]
